Results as given in ChEMBL document CHEMBL4330124, “Discovery of an Orally Available Janus Kinase 3 Selective Covalent Inhibitor” (J Med Chem, 2019).
The source made the active and inactive calls. The calls are words filed in the database; no cut-off is given here.

Experiments:
[1] = test system: PBMC; experiment: Effect on IL6-induced MCP1 production in human PBMC at 100 to 6000 nM preincubated for 2 hrs followed by IL6 stimulation measured after 24 hrs by ELISA; type: functional, cell-based
[2] = species on record: Homo sapiens; experiment: Inhibition of IL10/JAK/STAT3 signaling in human PBMC assessed as reduction in LPS-induced TNFalpha production at 100 nM preincubated for 2 hrs followed by LPS stimulation measured after 24 hrs by ELISA
[3] = species on record: Homo sapiens; experiment: Inhibition of IL10/JAK/STAT3 signaling in human PBMC assessed as reduction in LPS-induced IL6 production at 100 nM preincubated for 2 hrs followed by LPS stimulation measured after 24 hrs by ELISA
[4] = molecular target: Tyrosine-protein kinase BTK (Homo sapiens) (UniProt Q06187); experiment: Inhibition of BTK (unknown origin) at 1 uM after 60 mins by Z-LYTE assay
[5] = molecular target: Glycogen synthase kinase-3 beta (Homo sapiens) (UniProt P49841); experiment: Inhibition of GSK3beta (unknown origin) at 1 uM after 60 mins by Z-LYTE assay relative to control
[6] = molecular target: Protein kinase C alpha type (Homo sapiens) (UniProt P17252); experiment: Inhibition of PKCalpha (unknown origin) at 1 uM after 60 mins by Z-LYTE assay relative to control
[7] = molecular target: Epidermal growth factor receptor (Homo sapiens) (UniProt P00533); experiment: Inhibition of EGFR (unknown origin) at 1 uM after 60 mins by Z-LYTE assay
[8] = Clearance in ICR mouse at 5 mg/kg, po via gavage by LC/MS/MS analysis; type: ADME, organism-based; settings: in vivo
[9] = molecular target: Protein kinase C gamma type (Homo sapiens) (UniProt P05129); experiment: Inhibition of PKCgamma (unknown origin) at 1 uM after 60 mins by Z-LYTE assay relative to control
[10] = molecular target: T1, Tyrosine-protein kinase ITK/TSK (Homo sapiens) (UniProt Q08881); experiment: Inhibition of ITK (unknown origin) at 1 uM after 60 mins by Z-LYTE assay
T1 sequence (whole entry): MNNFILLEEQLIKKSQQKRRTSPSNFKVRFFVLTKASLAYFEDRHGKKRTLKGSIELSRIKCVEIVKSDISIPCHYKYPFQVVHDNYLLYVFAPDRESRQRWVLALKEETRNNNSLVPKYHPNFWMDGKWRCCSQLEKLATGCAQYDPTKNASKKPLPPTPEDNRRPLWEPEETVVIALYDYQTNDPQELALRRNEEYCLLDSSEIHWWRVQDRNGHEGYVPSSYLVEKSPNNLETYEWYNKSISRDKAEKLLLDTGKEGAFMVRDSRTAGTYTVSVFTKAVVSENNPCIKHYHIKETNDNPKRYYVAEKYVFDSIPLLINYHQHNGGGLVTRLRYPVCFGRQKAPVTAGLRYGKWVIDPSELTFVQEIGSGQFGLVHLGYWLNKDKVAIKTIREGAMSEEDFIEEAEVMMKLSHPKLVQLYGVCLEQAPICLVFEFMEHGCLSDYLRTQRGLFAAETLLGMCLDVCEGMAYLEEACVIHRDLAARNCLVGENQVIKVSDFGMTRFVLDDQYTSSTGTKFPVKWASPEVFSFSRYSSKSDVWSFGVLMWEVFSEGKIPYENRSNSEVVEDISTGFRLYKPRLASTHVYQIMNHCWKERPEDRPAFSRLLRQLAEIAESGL

Sequence of Glycogen synthase kinase-3 beta (Homo sapiens) (P49841 whole entry, looked up): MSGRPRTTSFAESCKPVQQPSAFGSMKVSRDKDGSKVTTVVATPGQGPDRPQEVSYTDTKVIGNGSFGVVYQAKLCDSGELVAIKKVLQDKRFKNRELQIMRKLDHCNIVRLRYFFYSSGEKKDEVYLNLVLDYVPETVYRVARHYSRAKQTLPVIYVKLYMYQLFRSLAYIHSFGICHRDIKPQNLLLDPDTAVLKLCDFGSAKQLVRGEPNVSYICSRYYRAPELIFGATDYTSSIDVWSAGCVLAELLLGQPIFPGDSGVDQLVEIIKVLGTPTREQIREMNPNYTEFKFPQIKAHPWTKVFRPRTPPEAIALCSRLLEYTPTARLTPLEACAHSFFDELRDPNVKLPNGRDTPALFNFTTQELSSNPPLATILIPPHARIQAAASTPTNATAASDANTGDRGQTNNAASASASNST
Sequence of Epidermal growth factor receptor (Homo sapiens) (P00533 whole entry): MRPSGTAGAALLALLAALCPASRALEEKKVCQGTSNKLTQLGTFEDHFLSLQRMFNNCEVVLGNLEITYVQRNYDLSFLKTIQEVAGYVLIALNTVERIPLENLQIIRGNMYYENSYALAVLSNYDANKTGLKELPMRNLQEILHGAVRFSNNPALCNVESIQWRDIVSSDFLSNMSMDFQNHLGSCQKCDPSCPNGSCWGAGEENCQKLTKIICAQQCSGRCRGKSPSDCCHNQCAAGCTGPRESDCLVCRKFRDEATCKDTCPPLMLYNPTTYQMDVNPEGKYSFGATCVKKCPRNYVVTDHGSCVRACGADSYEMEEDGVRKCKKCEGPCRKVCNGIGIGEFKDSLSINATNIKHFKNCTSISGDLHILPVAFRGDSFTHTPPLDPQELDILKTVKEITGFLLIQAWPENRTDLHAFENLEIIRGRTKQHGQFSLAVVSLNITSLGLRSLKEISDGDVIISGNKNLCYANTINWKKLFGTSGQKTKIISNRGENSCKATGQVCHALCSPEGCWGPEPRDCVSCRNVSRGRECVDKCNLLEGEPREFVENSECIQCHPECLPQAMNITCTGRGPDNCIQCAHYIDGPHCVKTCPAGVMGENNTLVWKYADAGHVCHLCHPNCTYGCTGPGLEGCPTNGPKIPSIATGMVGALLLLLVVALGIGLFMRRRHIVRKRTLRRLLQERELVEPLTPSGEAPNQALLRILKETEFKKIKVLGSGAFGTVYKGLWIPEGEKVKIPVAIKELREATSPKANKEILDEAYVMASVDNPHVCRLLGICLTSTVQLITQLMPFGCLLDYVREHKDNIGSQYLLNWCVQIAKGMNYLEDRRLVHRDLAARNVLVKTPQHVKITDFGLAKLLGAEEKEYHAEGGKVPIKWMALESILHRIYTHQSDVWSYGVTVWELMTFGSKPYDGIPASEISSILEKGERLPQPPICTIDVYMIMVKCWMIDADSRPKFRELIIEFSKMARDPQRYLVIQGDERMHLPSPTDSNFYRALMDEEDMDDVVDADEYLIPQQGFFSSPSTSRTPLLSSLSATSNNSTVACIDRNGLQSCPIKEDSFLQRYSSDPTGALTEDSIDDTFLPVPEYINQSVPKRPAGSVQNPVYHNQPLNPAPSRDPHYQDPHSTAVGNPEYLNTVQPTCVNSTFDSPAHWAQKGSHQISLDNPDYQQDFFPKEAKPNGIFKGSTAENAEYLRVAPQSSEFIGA
Sequence of Tyrosine-protein kinase BTK (Homo sapiens) (Q06187 whole entry): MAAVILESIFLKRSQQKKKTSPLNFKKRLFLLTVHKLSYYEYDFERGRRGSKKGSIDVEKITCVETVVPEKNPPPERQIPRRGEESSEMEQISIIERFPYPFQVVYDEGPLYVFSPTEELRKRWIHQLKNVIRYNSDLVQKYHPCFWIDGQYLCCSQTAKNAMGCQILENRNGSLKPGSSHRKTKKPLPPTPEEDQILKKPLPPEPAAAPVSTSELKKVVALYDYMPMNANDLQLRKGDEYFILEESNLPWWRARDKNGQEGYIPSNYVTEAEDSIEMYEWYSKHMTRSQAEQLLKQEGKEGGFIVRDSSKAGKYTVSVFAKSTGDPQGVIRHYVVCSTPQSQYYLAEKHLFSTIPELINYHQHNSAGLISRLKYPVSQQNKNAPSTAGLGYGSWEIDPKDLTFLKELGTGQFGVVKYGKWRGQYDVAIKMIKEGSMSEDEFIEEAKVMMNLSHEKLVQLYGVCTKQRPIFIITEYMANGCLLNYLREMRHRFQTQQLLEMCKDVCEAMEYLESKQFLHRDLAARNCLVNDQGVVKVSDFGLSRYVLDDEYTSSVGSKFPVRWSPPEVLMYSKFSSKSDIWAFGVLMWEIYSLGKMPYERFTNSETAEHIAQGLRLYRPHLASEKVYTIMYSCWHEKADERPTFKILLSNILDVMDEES

CC(C)(O)C(=O)N1CCN(c2ccc(C(F)(F)F)c(C3=C(c4c[nH]c5ccccc45)C(=O)NC3=O)c2)CC1
Activity [1]: inactive
inhibition [2]: Active
inhibition [3]: Active

C=CC(=O)N1C[C@H](Nc2ncnc3[nH]ccc23)CC[C@@H]1C
Activity [1]: inactive
inhibition [2]: Active
inhibition [3]: Active

C=CC(=O)N1CCN(c2ccc([N+](=O)[O-])c(C3=C(c4c[nH]c5ccccc45)C(=O)NC3=O)c2)CC1
inhibition [4]: Active
inhibition [5]: > 80%
Activity [1]: inactive
inhibition [6]: > 80%
inhibition [2]: Active
inhibition [3]: Active
inhibition [7]: Active
CL/F [8]: 138 mL/min/kg
inhibition [9]: > 80%
inhibition [10]: Active
